Assay results: US20120077761A1, “COMPOSITIONS AND METHODS FOR THE PREVENTION AND TREATMENT OF CORONARY HEART DISEASES” (Generex Pharmaceuticals, Inc, priority 2009, published 2012)

Tests used:
[1] = test system: human umbilical vein endothelial cells (HUVEC); assay: differentiation of human umbilical vein endothelial cells (HUVEC); format: cell-based; conditions: for differentiation of HUVEC, dose dependence: versus vehicle treated cells (proliferation, no differentiation)
Description: FIG. 2. illustrates a series of micrographs showing differentiation of vessel endothelial cells (HUVEC) induced by angioenhancin compounds of formula I and II. Panels a & b represent the vehicle treated cells showing proliferation but no sign of differentiation.

infarcted hearts = assay: myocardial infarction rat model (permanent LAD ligation), neovascularization in infarct zone; format: in vivo, Sprague-Dawley rats; conditions: vehicle-treated: mainly fibrosis
Description: Myocardial infarction (MI) animal model was induced in male Sprague-Dawley rats (300-350 g) by permanent ligation of the left anterior descending (LAD) coronary artery. The experimental rats were anesthetized with intraperitoneal pentobarbital (50 mg/kg), intubated, and mechanically ventilated with room air. The angioenhancin compound of formula I or formula II (2 mg/kg), dissolved in water (0.5 ml), was orally administrated to MI rats (n=6) for one day post ligation, daily for two weeks with equivalent amount of water to the vehicle-treated rats (n=6). For sham-operated rats (n=5), thoracotomy was performed without ligation. Animals were sacrificed after final echocardiography measurements.
Evaluation of neovascularization in infarcted hearts. Echocardiography was recorded on day 7 and 14 post operations. The hearts of the sacrificed rats were removed and washed with PBS. For histological studies, the left ventricles of the experimental rats were removed and cut from apex-to-base in 3 transverse slices and embedded in paraffin. To quantify the density of capillaries in infarct zones, the vessels were counted and averaged in 6 randomly selected high power view fields (HPF, 40×) on each section. Blinded capillary counts were performed on 6 hearts per group by two investigators. The results were expressed as mean±SD capillaries per HPF.

VEGF, VEGFR, EGF and FGF = assay: RT-PCR of angiogenesis-associated genes in treated heart tissues and endothelial cells; format: in vivo
ischemic hearts = assay: echocardiography assessment of heart function in cCHD rats; format: in vivo, SD rats; conditions: 5 mg/kg, echocardiography day 2, 7 and 14, progressively lowered in vehicle treated rats
Description: (§1) The subclinical cCHD rat model was produced as described. Briefly, male Sprague-Dawley (SD) rats, weighing 150-200 g, were used. Following proper anesthesia, left thoracotomy was performed on the animals. The pericardium was opened and a probe or surgical suture thread (11-0) was placed onto the epicardium along the LAD. […] The experimental rats with ST segment constantly depressed above 0.1 mV were selected and randomly divided into two groups. […] The rats in vehicle-treated group (n=6) were treated with equivalent period and amount of H2O. For the sham operation group (n=6), left thoracotomy was performed and the pericardium was opened but with no LAD ligation.
Echocardiography Assessment of Heart Function. In all, 12 SD rats received baseline echocardiography before any experimental procedures. Echocardiography was recorded under controlled anesthesia using a Toshiba Aplio XG Echocardiography with PLT-1202S linear array transducer S10-MHz phased-array transducer. M-mode tracing and 2-dimensional (2D) echocardiography images were recorded from the parasternal long- and short-axis views. Short axis view was at the papillary muscles level. Left ventricular end-systolic and end-diastolic dimensions, as well as systolic and diastolic wall thickness, were measured from the M-mode tracings by using the leading-edge convention of the American Society of Echocardiography. For each M-mode measurement, at least three consecutive cardiac cycles were sampled. All rats in both groups received echocardiography measurements on day 2, 7 and 14 post ligation.

[2] = test system: ischemic zone of myocardium; assay: subclinical chronic coronary heart disease (cCHD) rat model (partial LAD ligation), neovascularization in ischemic zone; format: in vivo, Sprague-Dawley (SD) rats; conditions: for vascular density in treated ischemic hearts versus vehicle-treated hearts (FIG. 4): 2 weeks post ligation; for chronic ischemic heart histology, 2 weeks post LAD partial ligation (FIG. 4): compared with vehicle-treated hearts (C1)
Description: as §1
Measurement of neovascularization in the ischemic zone. Left ventricles from the rats sacrificed on day 14 post-ligation were removed and sliced from apex to base in 3 transverse slices. The slices were fixed in formalin and embedded in paraffin. Vascular density was determined on the histology section samples by counting the number of vessels within the ischemic zone using a light microscope under a high power field (HPF) (40×). Eight random and non-overlapping HPFs within the ischemic field were used for counting all the vessels in each section. The number of vessels in each HPF was averaged and expressed as the number of vessels per HPF. Vascular counts were performed by two investigators in a blind fashion.
The capillary density in the ischemic zone of the angioenhancin treated myocardium was on average 12 capillaries (12±3.8) filled with blood cells per HPF, calculated from 8 randomly selected view fields on each of the 3 slides from 6 angioenhancin treated hearts on day 14.

[3] = test system: human aorta endothelial cells (HAEC); assay: capillary-like tube formation of human aorta endothelial cells on fibrin matrix; conditions: for Approx. No. of Tubes: HAEC on fibrin matrix, Ctrl 9; for Approx. No. of Tubes / capillary-like networks compared to vehicle-treated cells: 22 hours; for capillary-like networks compared to vehicle-treated cells: HAEC
Description: Cells were incubated at 37° C. and equilibrated in 95% air-5% CO2. Fibrin matrices were prepared by polymerization of fibrinogen solution (5 mg fibrinogen/ml serum-free medium) using low concentrations of α-thrombin (2.5 U/ml). After polymerization, gels were soaked in culture medium containing 10% FBS for 2 h at 37° C. to inactivate the thrombin. HAEC were seeded on the surface of the three-dimensional matrix in 96-well plates in Ham's F-12 medium and cultured for 22 hours with different concentrations of angioenhancin compounds of formula I and formula II in a growth medium. Non-treated control was added with equivalent amount of growth medium. Images were captured and the angiogenic properties were determined by calculating the total number of tubes formed.

Row | Compound | differentiation of HUVEC (cell phenotype, FIG. 2) ([1]; 10 μg/ml) | differentiation of HUVEC (cell phenotype, FIG. 2) ([1]; 20 μg/ml) | differentiation of HUVEC (cell phenotype, FIG. 2) ([1]; 40 μg/ml) | differentiation of HUVEC, dose dependence [1] | infarcted region histology, 2 weeks post LAD ligation (FIG. 4) (infarcted hearts) | expressions of angiogenesis-associated genes (VEGF, VEGFR, EGF and FGF), RT-PCR (VEGF, VEGFR, EGF and FGF) | left ventricle ejection fraction (LVEF) (ischemic hearts) | left ventricle fraction shortening (LVFS) (ischemic hearts) | vascular density in treated ischemic hearts versus vehicle-treated hearts (FIG. 4) [2] | chronic ischemic heart histology, 2 weeks post LAD partial ligation (FIG. 4) [2] | Approx. No. of Tubes ([3]; 5 μg/ml) | Approx. No. of Tubes ([3]; 10 μg/ml) | Approx. No. of Tubes ([3]; 20 μg/ml) | growth of capillary-like tubes versus non-treated control (FIG. 3) ([3]; HAEC passage 7, 22 hours, concentration not given) | capillary-like networks compared to vehicle-treated cells [3] | growth of capillary-like tube structures versus non-treated control (FIG. 3) ([3]; 5 μg/ml, HAEC passage 7, 22 hours)
1 | O=C(OC1OC2COC(=O)c3cc(O)c(O)c(O)c3-c3c(cc(O)c(O)c3O)C(=O)OC2C2OC(=O)c3cc(O)c(O)c(O)c3-c3c(cc(O)c(O)c3O)C(=O)OC12)c1cc(O)c(O)c(O)c1 (centres unmarked) [Formula II, Potentillin] | refractive and elongated cells | thin and elongated phenotype with the typical characteristic of differentiation of vessel endothelial cells | thin, elongated and circled phenotype forming tube-like structures | enhanced differentiation of HUVEC in a dose dependent manner | many newly formed vessels filled with red blood cells observed | up-regulated | progressively restored | progressively restored | higher | more blood vessels | ~67 | ~46 | ~45 | enhanced growth of capillary-like tubes more than that in non-treated control, but less than that in angioenhancin-I treated | formed more capillary-like networks | –
2 | pedunculagin [Formula I] | – | enhanced differentiation showing thin and elongated cells | thin and elongated phenotype forming tube-like structures | enhanced differentiation of HUVEC in a dose dependent manner | Many newly formed collateral vessels filled with red blood cells were found | up-regulated | progressively restored | progressively restored | higher | more blood vessels | ~45 | ~57 | ~68 | – | formed more capillary-like networks | enhanced growth of capillary-like tube structures much more than that in non-treated control
